According to patent EP0857721A1, “ACRIDONE COMPOUNDS” (Eisai Co., Ltd., priority 1995, dated 1997):

Each molecule was assayed on RBL-2H3 cells (assay: Inhibition of serotonin liberation from IgE-sensitized, antigen-stimulated RBL-2H3 cells ([3H]-serotonin)). Conditions: Rattus norvegicus; IgE-sensitized RBL-2H3 cells stimulated with specific antigen; [3H]-labeled serotonin.
Format: cell-based
Source text: Under the action of an antigen specific to the IgE antibody, RBL-2H3 cells, i.e., a cell line originating in rat cells, not only liberate histamine and serotonin but also produce and liberate cytokines such as TNF" serving as an inflammatory mediator and prostaglandins. In this experimental system, the effects of the compounds of the present invention of inhibiting the liberation of various mediators were examined by using serotonin as an indication.
The cells were labeled with [^3H]-labeled serotonin and, at the same time, sensitized with the IgE antibody. Next, these cells were incubated in the presence of the acridone compounds according to the present invention and then stimulated with the specific antigen. Then the serotonin liberation inhibitory activity of each acridone compound was calculated from the amount of the [^3H]-labeled serotonin thus liberated into the medium due to the above-mentioned stimulation and the amount of the [^3H]-labeled serotonin liberated into the medium by the same experimental procedure as the one described above but adding no acridone compound of the present invention.

Structure (SMILES)	IC50
Cc1ccc2c(=O)c3c(CC(=O)O)cccc3n(CCCNCc3ccccc3F)c2c1C [Compound 107]	6 µM
Cc1ccc2c(=O)c3ccccc3n(Cc3ccc(CN)cc3)c2c1C [Compound 119]	4 µM
Cc1ccc2c(=O)c3c(CC(=O)O)cccc3n(CCCNCc3ccccc3C(F)(F)F)c2c1C [Compound 116]	3 µM
Cc1ccc2c(=O)c3c(CC(=O)O)cccc3n(CCCNCc3ccc(Cl)c(O)c3Cl)c2c1C [Compound 24]	8 µM
Cc1ccc2c(=O)c3ccccc3n(Cc3cccc(CN)n3)c2c1C [Compound 120]	8 µM
CNS(=O)(=O)c1ccc(CNCCCn2c3ccccc3c(=O)c3ccc(C)c(C)c32)cc1 [Compound 69]	7 µM
Cc1ccc2c(=O)c3c(CC(=O)O)cccc3n(CCCNCc3ccc(Cl)c(Cl)c3O)c2c1C [Compound 23]	8 µM
Cc1ccc2c(=O)c3ccccc3n(CCCNCc3ccc(Cl)cc3Cl)c2c1C [Compound 67]	1 µM
Cc1cccc(CNCCCn2c3ccccc3c(=O)c3ccc(C)c(C)c32)c1 [Compound 33]	2 µM
Cc1ccc2c(=O)c3c(CC(=O)O)cccc3n(CCCNCc3cccc(F)c3)c2c1C [Compound 108]	5 µM
CCOC(=O)Cc1cccc2c1c(=O)c1ccc(C)c(C)c1n2CCCNCc1ccccc1 [Compound 21]	8 µM
Cc1ccc2c(=O)c3ccccc3n(Cc3ccccc3CN)c2c1C [Compound 117]	10 µM
Cc1ccc2c(=O)c3c(C(C)CC(=O)O)cccc3n(CCCNCc3ccccc3)c2c1C (stereo not shown) [Compound 8]	8 µM
Cc1ccc2c(=O)c3ccccc3n(CCCNCc3ccccc3C(F)(F)F)c2c1C [Compound 61]	1 µM
Cc1ccc2c(=O)c3ccccc3n(CCCNCc3cccc(C(=O)O)c3)c2c1C [Compound 56]	7 µM
COc1cccc(NCCCn2c3ccccc3c(=O)c3ccc(C)c(C)c32)c1 [Compound 81]	10 µM
Cc1ccc2c(=O)c3ccccc3n(CCCN(C3CCCCC3)C3CCCCC3)c2c1C [Compound 83]	5 µM
Cc1ccc2c(=O)c3c(C(C)CC(=O)O)cccc3n(CCCN)c2c1C (stereo not shown) [Compound 18]	10 µM
COc1ccc(CNCCCn2c3cccc(CC(=O)O)c3c(=O)c3ccc(C)c(C)c32)c(OC)c1 [Compound 99]	10 µM
Cc1ccc(CN(C)CCCn2c3cccc(CC(=O)O)c3c(=O)c3ccc(C)c(C)c32)cc1 [Compound 95]	10 µM
COC(=O)c1ccc(CNCCCn2c3ccccc3c(=O)c3ccc(C)c(C)c32)cc1 [Compound 50]	4 µM
Cc1ccc2c(=O)c3ccccc3n(Cc3ccc(CNCc4ccco4)cc3)c2c1C [Compound 125]	10 µM
Cc1ccc2c(=O)c3ccccc3n(CCCNc3cccc(-c4nnn[nH]4)c3)c2c1C [Compound 80]	11 µM
Cc1ccc2c(=O)c3c(CC(=O)O)cccc3n(CCCN)c2c1C [Compound 14]	10 µM
Cc1ccc2c(=O)c3ccccc3n(CCCN(CCC(N)=O)Cc3ccccc3)c2c1C [Compound 76]	4 µM
Cc1ccc2c(=O)c3ccccc3n(CCCNOCc3ccccc3)c2c1C [Compound 72]	2 µM
Cc1ccc2c(=O)c3ccccc3n(CCCNCc3cccc(F)c3)c2c1C [Compound 42]	2 µM

Structure (SMILES)	IC50
Cc1ccc2c(=O)c3ccccc3n(CC=CCNCc3ccccc3)c2c1C [Compound 129]	8 µM
Cc1ccc2c(=O)c3c(CC(=O)O)cccc3n(CCCNCc3ccco3)c2c1C [Compound 12]	0.5 µM
Cc1ccc2c(=O)c3ccccc3n(CCCN(CCO)Cc3ccccc3)c2c1C [Compound 77]	1 µM
Cc1ccc2c(=O)c3c(CC(=O)O)cccc3n(CCCNCc3ccc(F)c(F)c3)c2c1C [Compound 103]	3 µM
Cc1ccc2c(=O)c3c(CC(=O)O)cccc3n(CCCNCc3ccc(Cl)cc3O)c2c1C [Compound 30]	2 µM
Cc1ccc(CNCCCn2c3cc(F)ccc3c(=O)c3ccc(C)c(C)c32)cc1 [Compound 86]	3 µM
Cc1ccc2c(=O)c3c(CC(=O)O)cccc3n(CCCNCc3ccc(O)cc3)c2c1C [Compound 31]	1 µM
Cc1ccc2c(=O)c3c(C(C)C(=O)O)cccc3n(CCCNCc3ccc(Cl)c(Cl)c3)c2c1C (stereo not shown) [Compound 142]	1 µM
Cc1ccc2c(=O)c3c(CC(=O)O)cccc3n(CCCNCc3ccc(C(F)(F)F)cc3C(F)(F)F)c2c1C [Compound 29]	8 µM
Cc1ccc2c(=O)c3ccccc3n(CCCNCc3cccc(Br)c3)c2c1C [Compound 45]	2 µM
Cc1ccc2c(=O)c3c(CC(=O)O)cccc3n(CCCNCc3ccc(F)cc3)c2c1C [Compound 104]	5 µM
Cc1ccc2c(=O)c3c(CCC(=O)O)cccc3n(CCCNCc3ccccc3)c2c1C [Compound 5]	3 µM
Cc1ccc2c(=O)c3c(CC(=O)O)cccc3n(CCCNCc3ccc(F)cc3F)c2c1C [Compound 100]	10 µM
Cc1ccc2c(=O)c3c(C(C)C(=O)O)cccc3n(CCCN(C)Cc3ccccc3)c2c1C (stereo not shown) [Compound 140]	4 µM
Cc1ccc2c(=O)c3ccccc3n(CCCNCc3cccc(C#N)c3)c2c1C [Compound 35]	3 µM
COC(=O)CCc1cccc2c1c(=O)c1ccc(C)c(C)c1n2CCCNCc1ccccc1 [Compound 22]	3 µM
Cc1ccc2c(=O)c3c(CC(=O)O)cccc3n(CCCN(CCO)Cc3ccccc3)c2c1C [Compound 109]	3 µM
Cc1ccc2c(=O)c3ccccc3n(CCCNCc3cccc(C(F)(F)F)c3)c2c1C [Compound 38]	2 µM
Cc1ccc2c(=O)c3c(CC(=O)O)cccc3n(CCCNCc3ccccc3Cl)c2c1C [Compound 105]	5 µM
Cc1ccc2c(=O)c3ccccc3n(CCCNCc3ccccc3Cl)c2c1C [Compound 63]	10 µM
Cc1ccc2c(=O)c3ccccc3n(CCCNCc3ccc(F)cc3)c2c1C [Compound 43]	2 µM
Cc1ccc2c(=O)c3c(CC(=O)O)cccc3n(CCCN(C)Cc3cccc4ccccc34)c2c1C [Compound 97]	10 µM
Cc1ccc2c(=O)c3ccccc3n(CCCNCc3ccc(Br)cc3)c2c1C [Compound 66]	5 µM
Cc1ccc2c(=O)c3ccccc3n(CCCNCc3cccc(Cl)c3)c2c1C [Compound 64]	5 µM
Cc1ccc2c(=O)c3c(CC(=O)O)cccc3n(CCCNCc3cc4ccccc4o3)c2c1C [Compound 11]	0.5 µM
COc1cccc2c1c(=O)c1ccc(C)c(C)c1n2CCCNCc1ccc(C)cc1 [Compound 88]	2 µM
Cc1ccc2c(=S)c3ccccc3n(CCCN)c2c1C [Compound 130]	10 µM

Structure (SMILES)	IC50
Cc1ccc(CN(C)CCCn2c3cccc(CC(=O)O)c3c(=O)c3ccc(C)c(C)c32)c(C)c1 [Compound 27]	10 µM
Cc1cc(CN(C)CCCn2c3ccccc3c(=O)c3ccc(C)c(C)c32)cc(C)c1O [Compound 79]	7 µM
Cc1ccc2c(=O)c3ccccc3n(CCCN(CCC#N)Cc3ccccc3)c2c1C [Compound 75]	3 µM
Cc1cc(CNCCCn2c3ccccc3c(=O)c3ccc(C)c(C)c32)cc(C)c1O [Compound 47]	7 µM
Cc1ccc2c(=O)c3ccccc3n(Cc3ccc(CNCc4ncc[nH]4)cc3)c2c1C [Compound 126]	10 µM
Cc1ccc2c(=O)c3c(CC(=O)O)cccc3n(CCCN(C)Cc3ccc(Cl)c(O)c3Cl)c2c1C [Compound 25]	6 µM
CCN(CCCn1c2cccc(CC(=O)O)c2c(=O)c2ccc(C)c(C)c21)Cc1ccccc1 [Compound 91]	8 µM
Cc1ccc2c(=O)c3c(C(C)CC(=O)O)cccc3n(CCCNCc3ccc(Cl)cc3Cl)c2c1C (stereo not shown) [Compound 9]	10 µM
Cc1ccc2c(=O)c3ccccc3n(CCCNCc3ccc(C(N)=O)cc3)c2c1C [Compound 55]	10 µM
COc1ccc2c(=O)c3ccc(C)c(C)c3n(CCCNCc3ccc(C)cc3)c2c1 [Compound 87]	2 µM
Cc1ccc2c(=O)c3c(CC(=O)O)cccc3n(CCCNCc3cccc(Cl)c3)c2c1C [Compound 106]	10 µM
Cc1ccc(CNCCCn2c3ccccc3c(=O)c3ccc(C)c(C)c32)cc1 [Compound 62]	1 µM
Cc1ccc2c(=O)c3ccccc3n(CCCNCc3ccc(C#N)cc3)c2c1C [Compound 36]	2 µM
Cc1ccc(CNCCCn2c3cccc(CC(=O)O)c3c(=O)c3ccc(C)c(C)c32)c(C)c1 [Compound 26]	10 µM
Cc1ccc2c(=O)c3ccccc3n(Cc3cccc(CNCc4ccccc4)n3)c2c1C [Compound 128]	1 µM
Cc1ccc2c(=S)c3ccccc3n(CCCNCc3ccccc3)c2c1C [Compound 131]	10 µM
Cc1ccc2c(=O)c3ccccc3n(CCCNCc3c(Cl)cccc3Cl)c2c1C [Compound 48]	1 µM
Cc1ccccc1CNCCCn1c2ccccc2c(=O)c2ccc(C)c(C)c21 [Compound 32]	1 µM
Cc1ccc2c(=O)c3ccccc3n(CCCNCc3ccccc3F)c2c1C [Compound 41]	3 µM
Cc1ccc2c(=O)c3ccccc3n(Cc3ccccc3CNCc3ncc[nH]3)c2c1C [Compound 127]	5 µM
Cc1cc(CNCCCn2c3ccccc3c(=O)c3ccc(C)c(C)c32)ccc1O [Compound 46]	4 µM
Cc1ccc2c(=O)c3c(CC(=O)N(C)C)cccc3n(CCCN(C)Cc3ccccc3)c2c1C [Compound 136]	10 µM
Cc1ccc2c(=O)c3ccccc3n(CCCNCc3ccc(S(=O)(=O)N(C)C)cc3)c2c1C [Compound 70]	8 µM
Cc1ccc2c(=O)c3c(CC(=O)O)cccc3n(CCCN(C)CCc3ccccc3)c2c1C [Compound 113]	8 µM
Cc1ccc2c(=O)c3ccccc3n(Cc3ccc(CNCc4ccccc4)o3)c2c1C [Compound 133]	2 µM
